Measurements: patent US9907879B2, “Haemostatic composition comprising crystalline polyphosphate” (BK Giulini GMBH, priority 2013, dated 2018)

Tests used:
[1] = Determination of solubility in water; assay type: physicochemical; conditions: distilled water, 20-22° C., shaken 20 min
Experimental: The polyphosphates to be investigated were each weighed out in a 250 ml Erlenmeyer flask (5 g±0.01 g) and admixed with distilled water (50 ml, 20-22° C.). The mixture thus obtained was shaken at 200 revolutions per minute (rpm, rotary movement) for 20 min. Thereafter, the mixture was transferred to a centrifuge tube and centrifuged at 5000 rpm for 20 min. […] The solubility in g per 100 g of water was then obtained from the formula TR×10, where TR represents the determined dry residue in grams.

[2] = system: thrombin formation in blood plasma; test: Assay for measuring thrombin formation in real-time (thrombogram); assay type: biochemical; conditions: low-thrombocyte plasma; maximum thrombin concentration in thrombogram
Experimental: This method was used to determine the formation of thrombin in blood plasma, triggered in each case by the polyphosphates, in relation to time and to the amounts of polyphosphate used. With the aid of the so-called thrombograms thus obtained, it is possible to draw conclusions concerning the response rate and the extent of thrombin formation. The measurements were carried out in accordance with the instructions from Thrombinoscope BV (manufacturer of the below-mentioned fluorogenic substrate) in a fluorometer (Fluoroscan Ascent, Thermo Scientific) equipped with a dispenser (see F. Müller et al., Cell 2009, 139, 1143-1156 and Supplemental Data). […] Inner filter effects and the substrate consumption were corrected by calibrating each measurement against a fluorescence curve which was determined by means of a mixture of the plasma (80 μl) with a fixed amount of thrombin/α2-macroglobulin complex (Thrombin Calibrator, Thrombinoscope BV). […]
Characteristic of the thrombograms are, in particular, the delay time and the endogenous thrombin potential (ETP). […] ETP refers to the integral of the measured curve of the thrombin concentration. […]
Table 1 below characterizes the investigated phosphates in terms of their water solubility, their chain length, their solid structure and their hemostatic action. Here, water-soluble refers to phosphates having a water solubility of at least 1 g per 100 g of water, as determined by the above-described technique. Here, hemostatic refers to phosphates where the thrombograms, as determined by the above-described technique, have a maximum thrombin concentration of at least 50 nM. As can be clearly read off from Table 1, all the crystalline, water-insoluble polyphosphates according to the invention are notable for a hemostatic action, whereas amorphous, water-soluble polyphosphates and also crystalline mono-, tri- and metaphosphates are not hemostatic.

SMILES	Water-soluble [1]	Hemostatic [2]
O=P1([O-])OP(=O)([O-])OP(=O)([O-])O1.[Na+].[Na+].[Na+] [Example V7, sodium trimetaphosphate]	Yes (water-soluble refers to phosphates having a water solubility of at least 1 g per 100 g of water)	No (hemostatic refers to phosphates where the thrombograms, as determined by the above-described technique, have a maximum thrombin concentration of at least 50 nM)
O=P([O-])([O-])OP(=O)([O-])OP(=O)([O-])[O-].[Na+].[Na+].[Na+].[Na+].[Na+] [Example V1, sodium triphosphate]	–	No (hemostatic refers to phosphates where the thrombograms, as determined by the above-described technique, have a maximum thrombin concentration of at least 50 nM)
O.O.O=P([O-])([O-])O.[Ca+2] [Example V8, dicalcium phosphate dihydrate]	–	No (hemostatic refers to phosphates where the thrombograms, as determined by the above-described technique, have a maximum thrombin concentration of at least 50 nM)
